The values that follow come from patent US9522177B2, “Antimicrobial and immunostimulatory system comprising an oxidoreductase enzyme” (Institute of Technology Sligo, priority 2006, dated 2016).

Series [1] deals with L929 cells. As to the kind of experiment: ISO 10993-5 agar overlay cytotoxicity (neutral red). The settings on record: positive control, 24 hrs. Here is the method: ISO 10993, agar overlay tests for cytotoxicity: in vitro method is also used, employing L929 cells (mouse fibroblasts ECACC 85011425). In brief; a confluent monolayer of cells is incubated, this is then covered with a layer fresh medium (EMEM, 2 mM L-Glutamine, 5% FBS, 2% Penicillin-Streptomycin) containing 1.5 g/l of soft agar and allowed to solidify. One tenth of the surface is covered with test materials (previously described) and incubated for 24 hrs. Post incubation the test material is carefully removed and a vital stain (neutral red) in fresh media added. After incubation this is removed, the cells washed and then the dye extracted from the cells and quantified spectrophotometrically for cell viability.
Percent toxicity was calculated according to the formula: % Toxicity=1−(OD average of test material wells/average OD of corresponding control wells (sodium azide added))×100. Included in the assay are a 50% concentration of A^3IS, a range of concentrations of commercial silver containing gel and commercial zinc containing gel product, compared to sodium azide (positive control). […] For the agar overlay toxicity assay the amount of test materials used was similar to that used for the initial direct contact assays of 100 mg per well however the contact time was extended to 24 hrs.

Series [2] has as its system clinical isolates of Mastitis causing Staphylococcus aureus. As to the kind of experiment: Inhibition assay (3 day repeats), mastitis isolates. It counts as cell-based. The settings on record: for sensitivity of clinical isolate number 15: Mastitis causing Staphylococcus aureus isolate number 15, FIG. 11b. Here is the method: 22 isolates of Staphylococcus aureus from clinical mastitis obtained from Sligo regional Veterinary Laboratories are grown on nutrient agar or in nutrient broth for 24 hrs at 37° C.
Agar plates are inoculated by swabbing overnight culture onto the plate surface. Plates are allowed to stand at room temperature for 15 minutes before use. Wells 8.2 mm diameter are bored into the surface of the agar. One hundred and eighty μl of sample is placed into each well. The samples diffuse into the agar around the well and are assayed for an ability to produce a zone of inhibition. Plates are incubated for 24, 48 or 72 hrs and zones of inhibition are measured using an Autodata automatic zone reader. The diameter of zones, including the diameter of the well (8.2 mm), is recorded.

Regarding `[N-]=[N+]=[N-]` [sodium azide], the “% Toxicity” value in series [1] is reported as 100%.
For the compound `CN[C@H](CC(C)C)C(=O)N[C@H]1C(=O)N[C@@H](CC(N)=O)C(=O)N[C@H]2C(=O)N[C@H]3C(=O)N[C@H](C(=O)N[C@H](C(=O)O)c4cc(O)cc(O)c4-c4cc3ccc4O)[C@H](O)c3ccc(c(Cl)c3)Oc3cc2cc(c3O[C@@H]2O[C@H](CO)[C@@H](O)[C@H](O)[C@H]2O[C@H]2C[C@](C)(N)[C@H](O)[C@H](C)O2)Oc2ccc(cc2Cl)[C@H]1O` [Vancomycin], the “sensitivity of clinical isolate number 15” value in series [2] was “resistant”.
Same read-out and setting: under `[H]/N=C(/N)N[C@H]1[C@H](O)[C@@H](O)[C@H](O[C@@H]2O[C@@H](C)[C@](O)(C=O)[C@H]2O[C@@H]2O[C@@H](CO)[C@H](O)[C@@H](O)[C@@H]2NC)[C@@H](N/C(N)=N\[H])[C@@H]1O` [Streptomycin] stands “resistant”.
In the case of Nisin [2% Nisin], the “resistant colonies in zone of inhibition assays” value in series [2] (FIG. 11e) is on record as “resistant colony within the zone of inhibition”.
As for `O=C(N[C@H](CO)[C@H](O)c1ccc([N+](=O)[O-])cc1)C(Cl)Cl` [Chloramphenicol], the “sensitivity of clinical isolate number 15” value in series [2] is “only mild sensitivity”.
